Measurements reported in patent publication US20140142055A1, “METHODS OF TREATING RECURRENT MEIBOMIAN GLANDS DISORDER AND THEREBY DECREASING THE FREQUENCY OF RECURRENCE” (INSITE VISION CORPORATION, priority 2011, published 2014).

Test: Release of fluorometholone from the gelled aqueous polymer suspension in the rabbit eye, measured in the aqueous humor
Format: in vivo
Details: topical sustained-release aqueous suspension of lightly cross-linked carboxyl-containing polymer
Protocol: The viscous gels that result from fluid eye drops delivered by means of the aqueous suspensions have residence times in the eye ranging from about 2 to about 12 hours, e.g., from about 3 to about 6 hours. The active ingredients contained in these ophthalmically acceptable vehicles can be released from the gels at rates that depend on such factors as the active ingredient itself and its physical form, the extent of drug loading and the pH of the system, as well as on any drug delivery adjuvants, such as ion exchange resins compatible with the ocular surface, which can also be present.

In the case of `CC(=O)[C@@]1(O)CC[C@H]2[C@@H]3C[C@H](C)C4=CC(=O)C=C[C@]4(C)[C@@]3(F)[C@@H](O)C[C@@]21C` [fluorometholone], the “release rates in the rabbit eye, as measured by fluorometholone contained in the aqueous humor” value is reported as “in excess of four hours”.
